In brackets after ≈: the same amount, converted by molar mass.
How the values were obtained:
Assay type in all cases: functional
[1] = tested on: Haemophilus influenzae; assay: Antibacterial activity against ROB-1 producing ICE- negative Haemophilus influenzae F41 by Etest method
[2] = tested on: Haemophilus influenzae; assay: Antibacterial activity against ROB-1 producing ICE- negative Haemophilus influenzae H23 by Etest method
[3] = tested on: Haemophilus influenzae; assay: Antibacterial activity against ROB-1 producing ICE- positive Haemophilus influenzae F45 harboring D350N, V547I and N569S mutations in PBP3 by broth microdilution method
[4] = tested on: Haemophilus influenzae; assay: Antibacterial activity against ROB-1 producing ICE- positive Haemophilus influenzae F48 by broth microdilution method
[5] = tested on: Haemophilus influenzae; assay: Antibacterial activity against ROB-1 and TEM-1 producing ICE- positive Haemophilus influenzae F48 by Etest method
[6] = tested on: Haemophilus influenzae; assay: Antibacterial activity against ROB-1 producing ICE- positive Haemophilus influenzae F52 by broth microdilution method
[7] = tested on: Haemophilus influenzae; assay: Antibacterial activity against ROB-1 and TEM-1 producing ICE- positive Haemophilus influenzae F49 harboring D350N, V547I and N569S mutations in PBP3 by Etest method
[8] = tested on: Haemophilus influenzae; assay: Antibacterial activity against ROB-1 producing ICE- negative Haemophilus influenzae F41 by broth microdilution method
[9] = tested on: Haemophilus influenzae; assay: Antibacterial activity against ROB-1 producing ICE- negative Haemophilus influenzae H23 by broth microdilution method
[10] = tested on: Haemophilus influenzae; assay: Antibacterial activity against ROB-1 producing ICE- positive Haemophilus influenzae F54 harboring V489G, M503R, R517H, V547I and N569S mutations in PBP3 by broth microdilution method
[11] = tested on: Haemophilus influenzae; assay: Antibacterial activity against ROB-1 producing ICE- positive Haemophilus influenzae F47 by broth microdilution method
[12] = tested on: Haemophilus influenzae; assay: Antibacterial activity against ROB-1 producing ICE- negative Haemophilus influenzae F3 by Etest method
[13] = tested on: Haemophilus influenzae; assay: Antibacterial activity against ROB-1 producing ICE- negative Haemophilus influenzae Rd transformant harboring plasmid PB1000 by Etest method
[14] = tested on: Haemophilus influenzae; assay: Antibacterial activity against ROB-1 and TEM-1 producing ICE- positive Haemophilus influenzae F54 harboring V489G, M503R, R517H, V547I and N569S mutations in PBP3 by Etest method
[15] = tested on: Haemophilus influenzae; assay: Antibacterial activity against […] by Etest method
[16] = tested on: Haemophilus influenzae; assay: Antibacterial activity against ROB-1 producing ICE- negative Haemophilus influenzae F50 by Etest method
[17] = tested on: Haemophilus influenzae; assay: Antibacterial activity against ROB-1 and TEM-1 producing ICE- positive Haemophilus influenzae F52 by Etest method
[18] = tested on: Haemophilus influenzae; assay: Antibacterial activity against ROB-1 producing ICE- positive Haemophilus influenzae F49 harboring D350N, V547I and N569S mutations in PBP3 by broth microdilution method
[19] = tested on: Haemophilus influenzae; assay: Antibacterial activity against ROB-1 producing ICE- positive Haemophilus influenzae F45 harboring D350N, V547I and N569S mutations in PBP3 by Etest method
[20] = tested on: Haemophilus influenzae; assay: Antibacterial activity against ROB-1 producing ICE- negative Haemophilus influenzae Rd transformant harboring plasmid PB1000 by broth microdilution method
[21] = tested on: Haemophilus influenzae; assay: Antibacterial activity against ROB-1 and TEM-1 producing ICE- positive Haemophilus influenzae F47 by Etest method
[22] = tested on: Haemophilus influenzae; assay: Antibacterial activity against ROB-1 producing ICE- negative Haemophilus influenzae H62 by broth microdilution method
[23] = tested on: Haemophilus influenzae; assay: Antibacterial activity against […] by broth microdilution method
[24] = tested on: Haemophilus influenzae; assay: Antibacterial activity against ROB-1 producing ICE- negative Haemophilus influenzae F50 by broth microdilution method
[25] = tested on: Haemophilus influenzae; assay: Antibacterial activity against ROB-1 producing ICE- negative Haemophilus influenzae F3 by broth microdilution method
[26] = tested on: Haemophilus influenzae; assay: Antibacterial activity against ROB-1 producing ICE- negative Haemophilus influenzae H62 by Etest method

With `N[C@@H](C(=O)N[C@@H]1C(=O)N2C(C(=O)O)=C(Cl)CS[C@H]12)c1ccccc1` [CEFACLOR ANHYDROUS] the MIC [1] was 4 µg/mL (≈ 10.9 µM), the MIC [2] was 2 µg/mL (≈ 5.44 µM) and the MIC [3] was 64 µg/mL (≈ 174 µM). It also gave an MIC [4] of 16 µg/mL (≈ 43.5 µM), an MIC [5] of 6 µg/mL (≈ 16.3 µM) and an MIC [6] of 16 µg/mL (≈ 43.5 µM). It also gave an MIC [7] of 16 µg/mL (≈ 43.5 µM), an MIC [8] of 32 µg/mL (≈ 87 µM) and an MIC [9] of 16 µg/mL (≈ 43.5 µM). It also gave an MIC [10] of 64 µg/mL (≈ 174 µM), an MIC [11] of 32 µg/mL (≈ 87 µM) and an MIC [12] of 4 µg/mL (≈ 10.9 µM). For the same compound, the MIC [13] was 4 µg/mL (≈ 10.9 µM), the MIC [14] was 32 µg/mL (≈ 87 µM) and the MIC [15] was 0.5 µg/mL (≈ 1.36 µM). For the same compound, the MIC [16] was 2 µg/mL (≈ 5.44 µM), the MIC [17] was 6 µg/mL (≈ 16.3 µM) and the MIC [18] was 64 µg/mL (≈ 174 µM). The MIC [19] was 24 µg/mL (≈ 65.3 µM), the MIC [20] was 32 µg/mL (≈ 87 µM) and the MIC [21] was 4 µg/mL (≈ 10.9 µM). For the same compound, the MIC [22] was 32 µg/mL (≈ 87 µM), the MIC [23] was 1 µg/mL (≈ 2.72 µM) and the MIC [24] was 16 µg/mL (≈ 43.5 µM). For the same compound, the MIC [25] was 16 µg/mL (≈ 43.5 µM) and the MIC [26] was 6 µg/mL (≈ 16.3 µM).

Source: ChEMBL document CHEMBL1671749, “blaROB-1 presence on pB1000 in Haemophilus influenzae is widespread, and variable cefaclor resistance is associated with altered penicillin-binding proteins” (2010)
